{"source": "patent US12533362B2", "about": "“Methods for treating diseases associated with ciliopathies” (ALEXION PHARMACEUTICALS, INC., priority 2017, dated 2026)", "key": {"[1]": {"tested_on": "NPHP patient-derived cells", "assay": "automated cilia-based ciliogenesis assay in NPHP patient-derived cells", "format": "cell-based, human", "from_the_text": "(§1) To identify compounds for treating diseases associated with ciliopathies such as, for example, NPHP, NPHP patient-derived cells were obtained and cell lines were established. Briefly, peeled renal epithelial cells, which are mostly proximal tubule cells (tbc) recovered from urine of NPHP1-deficient patients, were immortalized by retroviral gene transfer of SV40 T antigen. Cells were fixed and fluorescence-labeled with Hoechst (for nuclei staining), anti-γ-tubulin antibody (for basal bodies staining), and anti-ARL13B antibody (for cilia staining) for detection using immunofluorescence microscopy.\n(§2) Briefly, NPHP patient-derived cells and control cells were cultured in complete media, at 39C (non-permissive temperature for SV40 expression), followed by automatic cilia analysis using immunofluorescence microscopy to measure ciliogenesis, e.g., in terms of % cilia. A spinning disk platform may be used for drug screening (FIG. 5, A-J) and ciliogenesis analysis of G3 multi-OMICs dataset (FIG. 29, A-E).\n(§3) The cilia-based assay described above may be used to identify compounds that restore ciliogenesis. […] Automated random acquisition of 35 images per well may be performed, for example. Each image may have z-stack of 10 images taken at <1 μm intervals."}, "[2]": {"tested_on": "control normal epithelial cells", "assay": "automated cilia-based ciliogenesis assay in control normal epithelial cells", "format": "cell-based, human", "from_the_text": "as §1, §2\nas §3, with “intervals. Consecutive imaging of nucleus (Hoechst at 461 nm), basal body (γ-tubulin at 555 nm) and cilia (ARL13b at 647 nm) may be obtained.” for “intervals.”"}, "URECs": {"tested_on": "URECs", "assay": "microarray differential expression analysis of URECs", "format": "cell-based, human", "conditions": "for top regulated genes signaling pathway, microarray: DMSO vs 0.2 μM, 2 μM and 10 μM", "method": "Microarray analysis was performed to identify expressed genes responsible for the alprostadil-mediated restoration of ciliogenesis."}, "zebrafish NPHP4 MO": {"tested_on": "zebrafish NPHP4 MO", "assay": "zebrafish NPHP4 morpholino (MO) model", "format": "in vivo", "method": "Briefly, wild-type Tg(wt1b:GFP) transgenic zebrafish embryos were injected with morpholino (e.g., nphp4 ATG MO) at one-cell stage. At 8 hours post-fertilization (hpf), injected embryos were treated with drug or vehicle in PTU-egg water (1 mL in 12-well plates). At 24 hpf, drug treatment was renewed, and pronase was added at 36 hpf for chorion removal."}, "EP1": {"molecular_target": "T1, EP1 (Mus musculus, UniProt P35375)", "T1 sequence (P35375 1-405)": "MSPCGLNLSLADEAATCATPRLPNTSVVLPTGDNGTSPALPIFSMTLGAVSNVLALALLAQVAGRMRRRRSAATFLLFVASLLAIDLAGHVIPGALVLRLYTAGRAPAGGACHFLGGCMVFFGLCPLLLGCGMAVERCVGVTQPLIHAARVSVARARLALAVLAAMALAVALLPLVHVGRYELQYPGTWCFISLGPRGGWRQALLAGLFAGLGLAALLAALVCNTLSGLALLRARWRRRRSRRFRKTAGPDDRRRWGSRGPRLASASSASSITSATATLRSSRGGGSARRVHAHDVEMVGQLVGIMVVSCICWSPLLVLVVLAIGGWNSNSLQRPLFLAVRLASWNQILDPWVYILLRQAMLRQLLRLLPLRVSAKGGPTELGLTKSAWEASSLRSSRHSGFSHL", "conditions": "cited from earlier work"}, "EP2": {"molecular_target": "EP2 (Mus musculus, UniProt Q62053)", "sequence (Q62053 whole entry)": "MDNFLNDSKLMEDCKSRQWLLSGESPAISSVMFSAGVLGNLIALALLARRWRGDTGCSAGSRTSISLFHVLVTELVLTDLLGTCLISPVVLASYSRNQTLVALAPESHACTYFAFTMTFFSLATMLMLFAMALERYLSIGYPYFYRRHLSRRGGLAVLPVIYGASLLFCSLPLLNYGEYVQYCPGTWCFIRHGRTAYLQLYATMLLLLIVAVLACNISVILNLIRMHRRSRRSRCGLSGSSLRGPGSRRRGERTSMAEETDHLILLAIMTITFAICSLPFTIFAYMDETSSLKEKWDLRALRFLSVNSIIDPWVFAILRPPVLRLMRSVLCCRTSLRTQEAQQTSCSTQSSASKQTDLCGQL", "conditions": "cited from earlier work"}, "EP3": {"molecular_target": "T2, EP3 (Mus musculus, UniProt P30557)", "T2 sequence (P30557 1-365)": "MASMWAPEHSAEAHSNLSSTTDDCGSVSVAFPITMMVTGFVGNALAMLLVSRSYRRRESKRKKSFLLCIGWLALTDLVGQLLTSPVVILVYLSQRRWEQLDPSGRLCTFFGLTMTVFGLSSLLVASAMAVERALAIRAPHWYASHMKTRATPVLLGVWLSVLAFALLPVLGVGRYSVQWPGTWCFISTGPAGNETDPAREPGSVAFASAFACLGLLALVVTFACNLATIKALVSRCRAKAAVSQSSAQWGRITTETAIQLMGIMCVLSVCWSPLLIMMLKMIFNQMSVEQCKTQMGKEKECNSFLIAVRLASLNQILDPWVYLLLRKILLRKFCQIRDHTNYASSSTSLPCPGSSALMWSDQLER", "conditions": "cited from earlier work"}, "EP4": {"molecular_target": "EP4 (Mus musculus, UniProt P32240)", "sequence (P32240 whole entry)": "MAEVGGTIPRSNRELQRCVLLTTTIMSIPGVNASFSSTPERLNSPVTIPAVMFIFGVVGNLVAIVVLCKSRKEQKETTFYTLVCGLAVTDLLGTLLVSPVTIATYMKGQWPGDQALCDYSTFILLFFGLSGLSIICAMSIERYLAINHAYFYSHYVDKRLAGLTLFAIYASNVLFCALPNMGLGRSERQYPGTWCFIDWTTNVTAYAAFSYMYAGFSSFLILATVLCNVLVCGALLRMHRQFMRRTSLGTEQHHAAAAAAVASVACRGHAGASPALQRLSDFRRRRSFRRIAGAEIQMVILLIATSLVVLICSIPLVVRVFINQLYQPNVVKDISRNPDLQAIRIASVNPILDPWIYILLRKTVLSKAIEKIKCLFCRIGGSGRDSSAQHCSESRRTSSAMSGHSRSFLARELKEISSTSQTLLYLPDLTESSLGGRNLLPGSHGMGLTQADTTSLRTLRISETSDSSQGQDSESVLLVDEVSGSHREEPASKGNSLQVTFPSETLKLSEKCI", "conditions": "cited from earlier work"}, "[3]": {"conditions": "meta-analysis, multiple NPHP patient-derived cell lines"}}, "data": [{"compound": "CCCCC[C@H](O)/C=C/[C@H]1[C@H](O)CC(=O)[C@@H]1CCCCCCC(=O)O", "note": "[alprostadil, prostaglandin E1]", "values": [{"measurement": "ciliogenesis rate", "setting": "[1]; 2 μM vs DMSO, NPHP1(del) cell lines PT1, 1-03-P, 1-06-P1, 1-06-P2, 1-09-P, 1-10-P, 1-12-P, FIG. 11B", "result": "significantly increases ciliogenesis rate"}, {"measurement": "% ciliated cells, dose response", "setting": "[1]; alprostadil titration from 1 nM to 2 μM and from 100 pM to 2 μM, FIG. 7", "result": "significantly increases % ciliated cells in a dose-dependent manner"}, {"measurement": "effect on ciliogenesis (percentage of ciliated cells) as compared with DMSO", "setting": "[1]; drug screening, various tested concentrations, FIG. 5 / FIG. 6", "result": "significantly restored ciliogenesis"}, {"measurement": "% ciliated cells, multi-omics phenotypic analysis", "setting": "[1]; five independent experiments, FIGS. 26A-26E", "result": "partially restores ciliogenesis"}, {"measurement": "increase in the effect on ciliogenesis in NPHP patient-derived cells versus control (DMSO 0.04%)", "setting": "[1]; meta-analysis, FIG. 8C", "result": "about two-fold"}, {"measurement": "linear regression pooled slope value of effect on ciliogenesis", "setting": "[1]; [3]", "result": 1.414}, {"measurement": "linear regression range of slope values of effect on ciliogenesis", "setting": "[1]; [3]", "result": "1.333 to 1.506"}, {"measurement": "ciliogenesis, meta-analysis", "setting": "[1]; vs DMSO 0.04%, PT1 cells, FIG. 8B", "result": "significantly increases ciliogenesis"}, {"measurement": "ciliogenesis, meta-analysis", "setting": "[2]; 2 μM vs DMSO 0.04%, CTRL cells, FIG. 8A", "result": "does not significantly affect ciliogenesis"}, {"measurement": "ciliogenesis rate", "setting": "[2]; 2 μM vs DMSO, normal control cells, FIG. 11B", "result": "no significant effect on ciliogenesis rate"}, {"measurement": "top regulated genes signaling pathway, microarray", "setting": "URECs; Qiazol extraction", "result": "down-regulation of cell adhesion and extracellular matrix, and up-regulation of interferon signaling"}, {"measurement": "top regulated genes signaling pathway, microarray", "setting": "URECs; RLT extraction", "result": "down-regulation of cell adhesion and extracellular matrix"}, {"measurement": "alteration in gene expression in NPHP patient-derived cells compared to control cells", "setting": "URECs; pathway analysis crossing microarray data with RNAseq of control vs patient", "result": "could reverse alteration in gene expression"}, {"measurement": "dorsal curvature (automated quantified parameter)", "setting": "zebrafish NPHP4 MO; 0.5 μM and 5 μM vs DMSO", "result": "did not significantly affect dorsal curvature"}, {"measurement": "body axis curvature (normal, class I, class II, class III)", "setting": "zebrafish NPHP4 MO; 0.5 μM and 5 μM vs DMSO, p>0.05 Fischer's exact test", "result": "did not significantly affect body axis curvature"}, {"measurement": "percentage of severe pronephric cysts", "setting": "zebrafish NPHP4 MO; 0.5 μM vs DMSO, p<0.05 Fischer's exact test", "result": "significantly reduced the percentage of severe pronephric cysts"}, {"measurement": "percentage of severe pronephric cysts", "setting": "zebrafish NPHP4 MO; 5 μM vs DMSO", "result": "significantly reduced the percentage of severe pronephric cysts"}, {"measurement": "IC50", "setting": "EP1", "result": 36, "unit": "nM"}, {"measurement": "IC50", "setting": "EP2", "result": 10, "unit": "nM"}, {"measurement": "IC50", "setting": "EP3", "result": 1.1, "unit": "nM"}, {"measurement": "IC50", "setting": "EP4", "result": 2.1, "unit": "nM"}]}]}
